# Results: patent US20240182869A1 (priority 2021, published 2024)
# Where two headings read alike, the source gives them in different places.
# How the values were obtained:
# C. perfringens [1] = assay type: cell-based, Clostridium perfringens
# C. perfringens [2] = assay type: cell-based, Clostridium perfringens; remark: listed apart in the source
# C. perfringens isolates = assay type: cell-based, Clostridium perfringens
# [3] = system: C. perfringens strain CP6; assay type: in vivo, Ross x Ross broiler chickens; conditions: T3 BMD 55 gm/metric ton in feed, C. perfringens challenge; for Adjusted FCR: adjusted for mortality
# [4] = system: C. perfringens strain CP6; assay type: in vivo, Ross x Ross broiler chickens; conditions: for Adjusted FCR: adjusted for mortality
# [5] = Day 0 to 14, T3 BMD 55 gm/metric ton, C. perfringens challenge
# [6] = Day 0 to 22, T3 BMD 55 gm/metric ton, C. perfringens challenge
# [7] = Day 0 to 28, T3 BMD 55 gm/metric ton, C. perfringens challenge
# [8] = T3 BMD 55 gm/metric ton, C. perfringens challenge, DOT 22
substance,measurement,setting,value
Clostridium phage vB_CpeP_VLR28,Virulence Index,C. perfringens [1],0.18
same,Cocktail MOI,C. perfringens [2],0.001
same,Individual MOI,C. perfringens [2],0.01
Clostridium phage vB_CpeP_ACP5,Virulence Index,C. perfringens [1],0.86
same,Cocktail MOI,C. perfringens [2],0.001
same,Individual MOI,C. perfringens [2],0.01
Clostridium phage vB_CpeM_AE3110,Virulence Index,C. perfringens [1],0.24
same,Cocktail MOI,C. perfringens [2],0.01
same,Individual MOI,C. perfringens [2],0.1
Clostridium phage vB_CpeP_ACP8,Virulence Index,C. perfringens [1],0.92
same,Cocktail MOI,C. perfringens [2],0.001
same,Individual MOI,C. perfringens [2],0.01
Clostridium phage vB_CpeP_MN6171,Virulence Index,C. perfringens [1],0.19
same,Cocktail MOI,C. perfringens [2],0.01
same,Individual MOI,C. perfringens [2],0.01
Clostridium phage vB_CpeS_RO96,Virulence Index,C. perfringens [1],0.67
same,Cocktail MOI,C. perfringens [2],0.01
same,Individual MOI,C. perfringens [2],0.01
Clostridium phage vB_CpeM_ACP45,Virulence Index,C. perfringens [1],0.91
same,Cocktail MOI,C. perfringens [2],0.01
same,Individual MOI,C. perfringens [2],0.01
Clostridium phage vB_CpeP_ACP10,Virulence Index,C. perfringens [1],0.19
same,Cocktail MOI,C. perfringens [2],0.001
same,Individual MOI,C. perfringens [2],0.1
Clostridium phage vB_CpeP_ACP22,Virulence Index,C. perfringens [1],0.14
same,Cocktail MOI,C. perfringens [2],0.01
same,Individual MOI,C. perfringens [2],0.1
Clostridium phage vB_CpeM_SMS460,"Clostridium perfringens strains capable of being infected or lysed (host range, FIG. 2)",C. perfringens isolates,"ATCC 13124, Q143.CN7, JBCNJ055, Q100,CN13, Q159.4C, JBFR063, M030.1C, CP_UoA_CA_39, CP_UoA_CA_24, JBCNI056, JBCNC058, JBCNC056 and CP_UoA_CA_132"
same,Virulence Index,C. perfringens [1],0.95
same,Cocktail MOI,C. perfringens [2],0.001
same,Individual MOI,C. perfringens [2],0.01
Bacitracin methylene disalicylate [Bacitracin Methylene Disalicylate (BMD)],Feed Intake,[3]; Day 0 to 14,4.87A Kg/Cage
same,Non-Adjusted FCR,[3]; Day 0 to 14,1.217AB
same,Weight Gain,[3]; Day 0 to 14,0.430A ^ kg
same,Adjusted FCR,[3]; Day 0 to 14,1.186AB
same,Feed Intake,[3]; Day 0 to 22,11.55AB Kg/Cage
same,Non-Adjusted FCR,[3]; Day 0 to 22,1.662BC
same,Weight Gain,[3]; Day 0 to 22,0.861AB kg
same,Adjusted FCR,[3]; Day 0 to 22,1.470AB
same,Feed Intake,[3]; Day 0 to 28,16.095BC Kg/Cage
same,Non-Adjusted FCR,[3]; Day 0 to 28,1.867BC
same,Overall Mortality,[3]; Day 0 to 28,24.00AB Percent
same,Weight Gain,[3]; Day 0 to 28,1.236AB kg
same,Adjusted FCR,[3]; Day 0 to 28,1.581A
same,NE Percent Mortality,[3],18.00A Percent
same,Lesion Scores Dunn's All-Pairwise Comparisons Test,[3]; DOT 22,33.00AB
same,Lesion Scores Kruskal-Wallis One-Way AOV (Mean Rank),[3]; DOT 22,33.00
same,"Lesion Scores Mean Score (Hofacre, 1998)",[3]; DOT 22,0.60AB
same,NE Percent Mortality,[3]; listed as BMD,18%
same,Feed Intake,[4]; [5],4.55A Kg/Cage
same,Non-Adjusted FCR,[4]; [5],1.353AB
same,Weight Gain,[4]; [5],0.338A kg
same,Adjusted FCR,[4]; [5],1.353AB
same,Feed Intake,[4]; [6],10.47A Kg/Cage
same,Non-Adjusted FCR,[4]; [6],1.403AB
same,Weight Gain,[4]; [6],0.776A kg
same,Adjusted FCR,[4]; [6],1.361AB
same,Feed Intake,[4]; [7],15.93A Kg/Cage
same,Non-Adjusted FCR,[4]; [7],1.483B
same,Overall Mortality,[4]; [7],3.33AB Percent
same,Weight Gain,[4]; [7],1.154A kg
same,Adjusted FCR,[4]; [7],1.453A
same,Lesion Scores Dunn's All-Pairwise Comparisons Test,[4]; [8],13.83A
same,Lesion Scores Kruskal-Wallis One-Way AOV (Mean Rank),[4]; [8],13.83
same,"Lesion Scores Mean Score (Hofacre, 1998)",[4]; [8],0.33A
same,FCR to DOT 28 versus challenge control (T2),[4]; both doses (T4 & T5) and BMD (T3),significantly better than the challenge control
Clostridium phage vB_CpeP_ACP11,Virulence Index,C. perfringens [1],0.03
same,Cocktail MOI,C. perfringens [2],0.01
same,Individual MOI,C. perfringens [2],0.1
